Measured values as given in ChEMBL document CHEMBL1142732, “In-depth study of tripeptide-based alpha-ketoheterocycles as inhibitors of thrombin. Effective utilization of the S1' subsite and its implications to structure-based drug design” (J Med Chem, 2005).

Experiments:
Prothrombin [1] = target: T1, Prothrombin (Homo sapiens, UniProt P00734); experiment: Binding affinity determined against human alpha thrombin
Prothrombin [2] = target: T1, Prothrombin; experiment: Inhibitory concentration against human alpha thrombin
Serine protease 1 = target: T2, Serine protease 1 (Bos taurus, UniProt P00760); experiment: Binding affinity against bovine trypsin
T2 sequence (P00760 whole entry): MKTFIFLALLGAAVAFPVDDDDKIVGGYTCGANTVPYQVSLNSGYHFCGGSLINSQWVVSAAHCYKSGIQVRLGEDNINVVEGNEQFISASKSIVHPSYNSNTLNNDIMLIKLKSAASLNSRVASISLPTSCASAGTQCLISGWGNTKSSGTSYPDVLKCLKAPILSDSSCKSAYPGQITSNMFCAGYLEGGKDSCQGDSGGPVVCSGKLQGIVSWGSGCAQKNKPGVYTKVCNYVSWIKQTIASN

Compound | Ki (Prothrombin [1]) | IC50 (Prothrombin [2]) | Ki (Serine protease 1)
CC(=O)N1CCC[C@H]1C(=O)NC(CCCN=C(N)N)C(=O)c1nc2ccccc2s1 (stereo partly drawn) |  | 14000 nM | 
NC(N)=NCCCC(NC=O)C(=O)c1nc2ccccc2s1 (stereo not drawn) |  | > 50000 nM | 1300 nM
CN[C@H](Cc1ccccc1)C(=O)N1CCC[C@H]1C(=O)NC(CCCN=C(N)N)C(=O)c1nc(C(=O)O)cs1 (stereo partly drawn) | 9.1 nM | 112 nM | 6 nM
CN[C@H](Cc1ccccc1)C(=O)N1CCC[C@H]1C(=O)N[C@H](Cc1cccc(C(=N)N)c1)C(=O)c1nc2ccccc2s1 | 15 nM | 370 nM | 2600 nM
NC(N)=NCCCC(NC(=O)[C@@H]1CCCN1)C(=O)c1nc2ccccc2s1 (stereo partly drawn) |  |  | 250 nM
CN[C@H](Cc1ccccc1)C(=O)N1CCC[C@H]1C(=O)N[C@@H](C[C@H]1CCCN(C(=N)N)C1)C(=O)c1nc2ccccc2s1 | 99 nM | 1000 nM | 210 nM
CN[C@H](Cc1ccccc1)C(=O)N1CCC[C@H]1C(=O)N[C@H](C(=O)c1nc2ccccc2s1)[C@H]1CC[C@H](CN)CC1 | 920 nM | 17000 nM | 54 nM
CN[C@H](Cc1ccccc1)C(=O)N1CCC[C@H]1C(=O)N[C@@H](CCCNC(=N)N)C(=O)c1nccs1 |  | 19 nM | 1.2 nM
N=C(N)NCCCC(NC(=O)C1CCCC1)C(=O)c1nc2ccccc2s1 (stereo not drawn) |  |  | 30 nM
CN[C@H](Cc1ccccc1)C(=O)N1CCC[C@H]1C(=O)N[C@@H](C[C@@H]1CCCN(C(=N)N)C1)C(=O)c1nc2ccccc2s1 | 1.6 nM | 51 nM | 8 nM
CN[C@H](Cc1ccccc1)C(=O)N1CCC[C@H]1C(=O)N[C@@H](Cc1cccc(C(=N)N)c1)C(=O)c1nc2ccccc2s1 | 0.99 nM |  | 1.8 nM
CN[C@H](Cc1ccccc1)C(=O)N1CCC[C@H]1C(=O)NC(CCCN=C(N)N)C(=O)c1nc2ccccc2c(=O)[nH]1 (stereo partly drawn) | 15 nM | 106 nM | 8.3 nM
CN[C@H](Cc1ccccc1)C(=O)N1CCC[C@H]1C(=O)N[C@@H](CCCNC(=N)N)C(=O)c1ccccn1 |  | 930 nM | 
CN[C@H](Cc1ccccc1)C(=O)N1CCC[C@H]1C(=O)N[C@H](C[C@H]1CCCN(C(=N)N)C1)C(=O)c1nc2ccccc2s1 | 380 nM |  | 540 nM
CN[C@H](Cc1ccccc1)C(=O)N1CCC[C@H]1C(=O)N[C@H](C=O)CCCN=C(N)N (stereo in doubt) | 18 nM |  | 

Second part, the compound after the results:

Ki (Prothrombin [1]) | IC50 (Prothrombin [2]) | Ki (Serine protease 1) | Compound
17 nM | 80 nM |  | CN[C@H](Cc1ccccc1)C(=O)N1CCC[C@H]1C(=O)N[C@H](CCCN=C(N)N)C(=O)c1nc2ccccc2s1
6.2 nM | 110 nM | 13 nM | CN[C@H](Cc1ccccc1)C(=O)N1CCC[C@H]1C(=O)NC(CCCN=C(N)N)C(=O)c1nc2ccccc2o1 (stereo partly drawn)
2100 nM | 21000 nM | 5300 nM | CN[C@H](Cc1ccccc1)C(=O)N1CCC[C@H]1C(=O)N(C)[C@@H](CCCN=C(N)N)C(=O)c1nc2ccccc2s1
3900 nM | 46000 nM | 12000 nM | CN[C@H](Cc1ccccc1)C(=O)N1CCC[C@H]1C(=O)N[C@@H](CCCOC)C(=O)c1nc2ccccc2s1
2400 nM | 13000 nM | 1300 nM | CN[C@H](Cc1ccccc1)C(=O)N1CCC[C@H]1C(=O)NC(CCCN=C(N)N)C(=O)c1cc2ccccc2s1 (stereo partly drawn)
 | 430 nM | 2.4 nM | CC(=O)N[C@H](Cc1ccccc1)C(=O)N1CCC[C@H]1C(=O)NC(CCCN=C(N)N)C(=O)c1nc2ccccc2s1 (stereo partly drawn)
 |  | 3.9 nM | C[C@@](N)(Cc1ccccc1)C(=O)N1CCC[C@H]1C(=O)NC(CCCN=C(N)N)C(=O)c1nc2ccccc2s1 (stereo partly drawn)
 |  | 5.3 nM | CN[C@H](Cc1ccccc1)C(=O)N1CCC[C@H]1C(=O)NC(CCCN=C(N)N)C(=O)c1nc2ccc(CO)cc2s1 (stereo partly drawn)
9.6 nM | 360 nM | 12 nM | CN[C@H](Cc1ccccc1)C(=O)N1CCC[C@H]1C(=O)NC(CCCN=C(N)N)C(=O)c1nc2ccccc2[nH]1 (stereo partly drawn)
 |  | 1.5 nM | CN[C@H](Cc1ccccc1)C(=O)N1CCC[C@H]1C(=O)NC(CCCN=C(N)N)C(=O)c1nc2ccc(F)cc2s1 (stereo partly drawn)
